20 compounds from ChEMBL document CHEMBL4251604, “Design, synthesis and biological evaluation of 1, 4-dihydro indeno[1,2-c] pyrazole linked oxindole analogues as potential anticancer agents targeting tubulin and inducing p53 dependent apoptosis” (Eur J Med Chem, 2018) can be followed below.

Calls of active or inactive are those of the source. The calls are words filed in the database; no cut-off is given here.

As usually defined, the IC50 is the concentration at which inhibition is half-maximal. Read a high IC50 as weaker potency in that assay.

Test [1] concerns HeLa. Nature of the test: Antiproliferative activity against human HeLa cells after 24 hrs by SRB assay. It counts as functional, cell-based. On the technique in general: Sulforhodamine B stains cellular protein and so reports cell mass.
The test system of a further test is A549. Put plainly: Antiproliferative activity against human A549 cells after 24 hrs by SRB assay. The class given is functional, cell-based. The settings on record: A549, 24 h.
In another test the test system is MDA-MB-231. Put plainly: Antiproliferative activity against human MDA-MB-231 cells after 24 hrs by SRB assay. The class given is functional, cell-based. The settings on record: MDA-MB-231, 24 h.
A further test concerns HEK293. Nature of the test: Antiproliferative activity against HEK293 cells after 24 hrs by SRB assay. The note with it: Homo sapiens, HEK293, 24 h. The class given is cell-based.
The subject of test [2] is HeLa. Nature of the test: Cell cycle arrest in human HeLa cells assessed as accumulation of cells at G2/M phase at 5 uM after 24 hrs by propidium iodide staining-based flow cytometric analysis (reference value: 16.4%). The class given is functional. On the technique in general: Flow cytometry measures light scatter and fluorescence of single cells or particles in a stream.

Test [3] deals with HeLa. Nature of the test: Inhibition of microtubules in human HeLa cells assessed as induction of disorganized spindle fibers formation at 5 uM after 24 hrs by DAPI staining-based confocal microscopic analysis. The class given is cell-based.
The next test concerns the target Tubulin (Homo sapiens) (UniProt P68371+Q9H4B7+P0DPH7+P68366+Q13509+Q71U36+P04350+Q3ZCM7+P07437+P68363+Q9BQE3+Q6PEY2+Q13885+Q9BVA1+Q9BUF5). Nature of the test: Inhibition of tubulin polymerization in human HeLa cells assessed as reduction in polymerized tubulin expression at 5 uM affter 24 hrs by Western blot analysis. The class given is cell-based. A general note: A western blot detects proteins with antibodies after separation by electrophoresis.

Test [4] has as its system HeLa. Put plainly: Inhibition of microtubules in human HeLa cells assessed as induction of cell cycle arrest in metaphase at 5 uM after 24 hrs by DAPI staining-based confocal microscopic analysis.
Test [5] has as its system HeLa. Put plainly: Inhibition of microtubules in human HeLa cells assessed as increase in cyclin B1 protein level at 5 uM affter 24 hrs by Western blot analysis. The class given is cell-based.
Test [6] relates to HeLa. Put plainly: Inhibition of microtubules in human HeLa cells assessed as increase in CDK1 protein level at 5 uM affter 24 hrs by Western blot analysis. It counts as cell-based.
For test [7], the system named is HeLa. Put plainly: Induction of apoptosis in human HeLa cells assessed as increase in p53 expression at 5 uM after 24 hrs by Western blot analysis. It counts as functional, cell-based.
In test [8] the test system is HeLa. Nature of the test: Induction of apoptosis in human HeLa cells assessed as increase in p21 expression at 5 uM after 24 hrs by Western blot analysis. It counts as functional, cell-based.
In test [9] the test system is HeLa. Put plainly: Induction of apoptosis in human HeLa cells assessed as increase in Bax expression at 5 uM after 24 hrs by Western blot analysis. The class given is functional, cell-based.
For test [10], the system named is HeLa. Put plainly: Induction of apoptosis in human HeLa cells assessed as increase in p53 expression at 5 uM after 24 hrs by DAPI staining-based immunocytochemistry. It counts as functional, cell-based.
In test [11] the test system is HeLa. Nature of the test: Induction of apoptosis in human HeLa cells assessed as increase in Bax expression at 5 uM after 24 hrs by DAPI staining-based immunocytochemistry. The class given is functional, cell-based.
Test [12] relates to HeLa. Nature of the test: Induction of apoptosis in human HeLa cells assessed as increase in caspase-3 activation at 5 uM after 24 hrs by fluorescence assay. It counts as functional, cell-based.

As for `O=C1Nc2ccc(Cl)cc2/C1=C/c1[nH]nc2c1Cc1ccccc1-2`, the IC50 stood at 15.2 µM with HeLa [1], 20.5 µM with A549, 16.8 µM in the test with MDA-MB-231 and 24.3 µM with HEK293.
Taken in the same sequence, the figures for `O=C1Nc2ccc(Br)cc2/C1=C/c1[nH]nc2c1Cc1ccccc1-2` were 16.9 µM, 21.1 µM, 20.3 µM and 22.5 µM.
Taken in the same sequence, the figures for `COc1ccc2c(c1)-c1n[nH]c(/C=C3\C(=O)Nc4ccc([N+](=O)[O-])cc43)c1C2` were 22.1 µM, 26 µM, 29.2 µM and 30.8 µM.
Taken in the same sequence, the figures for `COc1ccc2c(c1)/C(=C/c1[nH]nc3c1Cc1ccccc1-3)C(=O)N2` were 30.1 µM, 29.6 µM, 26.7 µM and 33.9 µM.
As for `COc1cc2c(cc1OC)-c1n[nH]c(/C=C3\C(=O)Nc4cc([N+](=O)[O-])ccc43)c1C2`, the IC50 in the test with HeLa [1] came to 30.7 µM; in the test with A549, 34.4 µM; with MDA-MB-231 it was 29.9 µM; in the test on HEK293, 36.7 µM.
With `COc1cc2c(cc1OC)-c1n[nH]c(/C=C3\C(=O)Nc4ccc(Cl)cc43)c1C2`, the IC50 in the test on HeLa [1] stood at 8.96 µM; in the test on A549, 13.5 µM; in the test with MDA-MB-231 it was 12.3 µM; in the test on HEK293, 9.21 µM.
In the case of `COc1cc2c(cc1OC)-c1n[nH]c(/C=C3\C(=O)Nc4ccc(Br)cc43)c1C2`, the IC50 with HeLa [1] came out at 11.5 µM; in the test on A549, 17.1 µM; in the test with MDA-MB-231, 18.7 µM; in the test with HEK293, 19.6 µM.
For `COc1ccc2c(c1)-c1n[nH]c(/C=C3\C(=O)Nc4ccc(Br)cc43)c1C2`, the IC50 in the test on HeLa [1] came out at 30.9 µM; with A549 it was 29.8 µM; with MDA-MB-231 it was 34.1 µM; in the test on HEK293, 35.8 µM.
In the case of `O=C1Nc2cc(Cl)ccc2/C1=C/c1[nH]nc2c1Cc1ccccc1-2`, the IC50 with HeLa [1] amounted to 14.6 µM; in the test on A549, 20.5 µM; in the test with MDA-MB-231 it was 24.3 µM; in the test with HEK293 it was 19.4 µM.
In the same order, the values of `COc1ccc2c(c1)-c1n[nH]c(/C=C3\C(=O)Nc4cc(Cl)ccc43)c1C2` are 17 µM, 20.9 µM, 19 µM and 21.9 µM.
In the same order, the values of `O=C1Nc2cc(Br)ccc2/C1=C/c1[nH]nc2c1Cc1ccccc1-2` are 30.7 µM, 35.6 µM, 29.7 µM and 34.2 µM.
As to `COc1ccc2c(c1)/C(=C/c1[nH]nc3c1Cc1cc(OC)c(OC)cc1-3)C(=O)N2`, the IC50 with HeLa [1] came out at 2.58 µM; with A549, 3.43 µM; in the test with MDA-MB-231, 4.14 µM; in the test on HEK293 it was 5.1 µM. In addition, the Activity with HeLa [2] worked out at 31.3%. Further, the inhibition entry with HeLa [3], at Tubulin (Homo sapiens), in the test with HeLa [4], in the test on HeLa [5] and with HeLa [6] was “Active” throughout.
On to `COc1ccc2c(c1)-c1n[nH]c(/C=C3\C(=O)Nc4cc(Br)ccc43)c1C2`, for which the half-maximal inhibitory concentration (IC50) was found to be 25.4 µM with HeLa [1], 26.1 µM in the test with A549, 23.4 µM in the test on MDA-MB-231 and 28.6 µM in the test with HEK293.
In the same order, the values of `COc1ccc2c(c1)-c1n[nH]c(/C=C3\C(=O)Nc4ccccc43)c1C2` are 16 µM, 20.6 µM, 19.3 µM and 22.5 µM.
For `COc1cc2c(cc1OC)-c1n[nH]c(/C=C3\C(=O)Nc4cc(Cl)ccc43)c1C2`, the IC50 with HeLa [1] was 1.33 µM; in the test with A549, 2.44 µM; in the test on MDA-MB-231, 2.08 µM; with HEK293, 2.97 µM. The Activity in the test with HeLa [2] came to 30.3%. The inhibition entry with HeLa [3], on Tubulin (Homo sapiens), with HeLa [4], in the test with HeLa [5] and in the test with HeLa [6] was “Active” each time. Moreover, the outcome in the test with HeLa [7], with HeLa [8], in the test with HeLa [9], with HeLa [10], in the test with HeLa [11] and in the test on HeLa [12] was Active.
Regarding `COc1cc2c(cc1OC)-c1n[nH]c(/C=C3\C(=O)Nc4ccccc43)c1C2`, the half-inhibitory concentration (IC50) in the test with HeLa [1] came to 2.16 µM; with A549, 2.92 µM; in the test with MDA-MB-231 it was 3.45 µM; in the test with HEK293, 4.36 µM. In addition, the Activity with HeLa [2] was 23.6%. Moreover, the inhibition entry in the test with HeLa [3], at Tubulin (Homo sapiens), in the test on HeLa [4], in the test on HeLa [5] and in the test with HeLa [6] was “Active” each time. For the same compound, the outcome in the test with HeLa [12] was Active.
As for `COc1ccc(/C=C\c2cc(OC)c(OC)c(OC)c2)cc1O` [COMBRETASTATIN A4], the IC50 is 1.43 µM in the test with HeLa [1], 1.15 µM in the test with A549, 0.92 µM in the test on MDA-MB-231 and 1.73 µM in the test on HEK293. In addition, the Activity in the test on HeLa [2] was found to be 55.8%. Further, the inhibition entry in the test with HeLa [3] and with HeLa [4] was “Active” each time.
As for `COc1cc2c(cc1OC)-c1n[nH]c(/C=C3\C(=O)Nc4cc(Br)ccc43)c1C2`, the IC50 with HeLa [1] was determined as 20.5 µM; with A549, 22.5 µM; in the test with MDA-MB-231, 20.4 µM; with HEK293, 24.6 µM.
In the same order, the values of `COc1ccc2c(c1)-c1n[nH]c(/C=C3\C(=O)Nc4ccc(Cl)cc43)c1C2` are 17.5 µM, 17.6 µM, 20.8 µM and 27.4 µM.
For `O=C1Nc2ccccc2/C1=C/c1[nH]nc2c1Cc1ccccc1-2`, the IC50 in the test with HeLa [1] was found to be 11.7 µM; in the test on A549, 16.6 µM; with MDA-MB-231 it was 19 µM; in the test on HEK293, 24.3 µM.
